These results are taken from US9012439B2, “Use of electrophilic compounds for inducing platelet production or maintaining platelet function” (University of Rochester, priority 2007, dated 2015).

Assay [1] relates to human culture-derived platelets. Kind of assay: Function of human culture-derived platelets (collagen response, spreading on fibrinogen). Format: cell-based. The method, then: Platelets were isolated from the Meg-01 cells and human blood as described above. Both normal human platelets and Meg-01-derived platelets were stained with annexin V-FITC then treated with 10 μg/ml of collagen for 15 min. Cells were analyzed for collagen-induced annexin V binding and change in size and shape by flow cytometry. Platelets were isolated from primary human megakaryocytes and primary mouse megakaryocytes as described above. Primary human platelets were stained with CD41-FITC and primary mouse platelets were stained with CD61-PE then treated with 10 μg/mL of collagen. Cells were analyzed for collagen-induced CD61/CD41 upregulation and change in size and shape using flow cytometry.
Coverslips were coated with 100 μg/mL of fibrinogen for 1 h and blocked with 0.5 mg/mL BSA for 1 h. Platelets were added to the fibrinogen-coated coverslips in Tyrode's buffer and fixed with glutaraldehyde, post-fixed with 1% osmium tetroxide, and dehydrated. Platelets were then coated with a gold/palladium film. Images were acquired using the Zeiss-Leo 982 FE-SEM (scanning electron microscope).

In assay [2] the test system is Meg-01 cells. Kind of assay: Reactive oxygen species production in Meg-01 cells (carboxy-H2DCFDA, MitoSOX Red). The settings on record: for percentage of Meg-01 cells that produce mitochondrial superoxide (MitoSOX Red): 10 μM. Format: cell-based, human. The method, then: Ten μM carboxy-H2DCFDA was added to cells for 20 min at RT. The cells were washed and immediately analyzed by flow cytometry. Five μM of MitoSOX Red dye in HBSS containing Mg^2+ and Ca^2+ was added to the cells for 15 min at 37° C. The cells were washed in HBSS and analyzed by flow cytometry.

The test system of assay [3] is Meg-01 cells. Kind of assay: Platelet production from Meg-01 cells (flow cytometry). Type of assay: cell-based, human. The method, then:
(§1) Meg-01 and M07e cells were purchased from the American Type Culture Collection (Rockville, Md.) and Dami cells were a generous gift from Dr. Patricia J. Simpson-Haidaris (University of Rochester). All cells were cultured in RPMI-1640 tissue culture medium (Invitrogen) supplemented with 5% fetal bovine serum (FBS; Invitrogen), 10 mM HEPES (N-2-hydroxyethylpiperazine-N′-2-ethanesulfonic acid; Sigma), 2 mM L-glutamine (Invitrogen), 4.5 g/L glucose (Invitrogen), and 50 μg/mL gentamicin (Invitrogen). M07e cells were also supplemented with 100 ng/mL of granulocyte monocyte-colony stimulating factor (GM-CSF, R&D Systems). All treatments were performed in normal growth media. Dimethyl sulfoxide (DMSO) was used as a vehicle (control) in the experiments described below.
Platelets were isolated from megakaryocytes by centrifugation at 150 xg for 10 min. Supernatants underwent sequential centrifugation (500 xg for 10 min and 1000×g for 10 min). The remaining platelet pellet was fixed then permeabilized with a CD61 or CD41 antibody. 7-AAD (BD Pharmingen) was added for 10 min before analyzing the cells by flow cytometry. Platelets were identified using three well-described parameters (Patel et al., “The Biogenesis of Platelets from Megakaryocyte Proplatelets,” J Clin Invest 115:3348-3354 (2005); Breton-Gorius et al., “Expression of Platelet Proteins During the In Vitro and In Vivo Differentiation of Megakaryocytes and Morphological Aspects of Their Maturation,” Semin Hematol 23:43-67 (1986); Ogura et al., “Establishment of a Novel Human Megakaryoblastic Leukemia Cell Line, MEG-01, With Positive Philadelphia Chromosome,” Blood 66:1384-1392 (1985) and Franks et al., “A Fluorescence Microscopy Method for Quantifying Levels of Prostaglandin Endoperoxide H Synthase-1 and CD-41 in MEG-01 Cells,” Biol Proced Online 3:54-63 (2001), each of which is hereby incorporated by reference in its entirety), size (using normal human platelets as a control), presence of CD61 or CD41 and lack of DNA as determined by the absence of 7-AAD staining Ten thousand platelet events were collected and platelets were quantified by rate (platelet events/second) (Chung et al., “Platelet Activation in Acute, Decompensated Congestive Heart Failure,” Thromb Res 120:709-713 (2007), which is hereby incorporated by reference in its entirety.
A 19 by target sequence was selected to knock down PPARγ. PPARγ was cloned downstream of the RNA polymerase III U6 promoter and subcloned into a FG12 lentiviral vector which expresses green fluorescent protein (GFP) under the Ubiquitin C promoter. HEK 293 cells expressing this siRNA PPARγ had reduced PPARγ protein levels. To make the lentivirus, HEK 293 cells were co-transfected with 3 plasmids: the envelope vector (CMV-VSVG), the transfer vector (FG12-shRNAPPAR), and the packaging construct (pCMVΔ89.2 (gag/pol proteins)). Viral supernatants were collected every 8 h for 2 days and concentrated by ultracentrifugation at 50,000×g for 2 h at 4° C. using a Beckman SW 28 rotor. Viral titers were determined by infection of HeLa cells with serial dilutions of the viral stocks. Meg-01 cells were infected at a multiplicity of infection (MOI) of 20. After 48 h, approximately 56% of the PPARγ siRNA cells were transduced as determined by flow cytometry. The GFP positive (+) cells were then sorted by FACS and grown in RPMI with 5% FBS.

A further assay concerns Dami cells. Kind of assay: Platelet production from Dami cells (flow cytometry). Type of assay: cell-based. The following applies: 10 μM, 24 h. As for the experimental part: as §1
Platelets were isolated from megakaryocytes by centrifugation at 150 xg for 10 min. Supernatants underwent sequential centrifugation (500 xg for 10 min and 1000×g for 10 min). The remaining platelet pellet was fixed then permeabilized with a CD61 or CD41 antibody. 7-AAD (BD Pharmingen) was added for 10 min before analyzing the cells by flow cytometry. […]
For orientation: In flow cytometry, cells or beads pass a laser one at a time.

“Also recorded” adds a separate entry of the source.

Consider `CCCCCC=CC=C1C(=O)C=C[C@@H]1CC=CCCCC(=O)O` [15d-PGJ2, 15-deoxy-Δ^12,14 prostaglandin J2], for which, in assay [1] (human culture-derived platelets, fibrinogen coated slide), the “platelet spreading on fibrinogen” value was “spread in response to fibrinogen”. Moreover, the “geometric mean fluorescence intensity of surface CD61, after collagen treatment” value in assay [1] (platelets from CD61+ cell cultures treated with 15d-PGJ2, collagen 10 μg/mL, 15 min) was determined as 20. Further, the “geometric mean fluorescence intensity of surface CD61, before collagen” value in assay [1] (platelets from CD61+ cell cultures treated with 15d-PGJ2, no collagen) is 5. The “percentage of Meg-01 cells that produce mitochondrial superoxide (MitoSOX Red)” value with Meg-01 cells [2] (1 h) is on record as 43%; with Meg-01 cells [2] (6 h) it was 31%. Besides, the entries for the “percentage of Meg-01 cells that express ROS (carboxy-H2DCFDA)” value in the assay on Meg-01 cells [2] (1 h) and in the assay with Meg-01 cells [2] (6 h) were 91% and 97%, respectively. Besides, the “platelet-enhancing effect after PPARγ protein knock-down” value in the assay on Meg-01 cells [3] (Meg-01 cells infected with PPARγ siRNA lentivirus, 15d-PGJ2 24 h) is recorded as “failed to attenuate the platelet-enhancing effects of 15d-PGJ2”. For the same molecule, the platelet production result in the assay on Meg-01 cells [3] (Meg-01 cells, 10 μM, 24 h) is recorded as “increased platelet production; also recorded: enhanced Meg-01 platelet production”; with Dami cells, “increased platelet production”. Besides, in the assay with Meg-01 cells [3] (Meg-01 cells, increasing concentrations, 24 h), the “platelet production with increasing concentrations” value is “dose-dependent increase in platelet production”.
